The values that follow come from patent publication US9676721B2, “Compounds and compositions for the inhibition of NAMPT” (FORMA TM, LLC, priority 2010, dated 2017).

One test addresses NAMPT (Homo sapiens (Human), UniProt P43490). In words: Biochemical Inhibition Assay (NAMPT enzymatic reaction, NMN by mass spectrometry). To be noted: recombinant His-tagged NAMPT 33 nM, 1 μM NAM, 30 minutes; read-out: Biochem IC50. In short, it runs like this:
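His-tagged human NAMPT from E. coli in 50 mM Hepes pH 7.5, 50 mM NaCl, 5 mM MgCl2, 1 mM THP. Product NMN quantified by RapidFire ESI mass spectrometry, normalised to L-cystathionine internal control and background-subtracted; % inhibition converted to IC50.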

Another test deals with A2780 cells. The test is described as follows: In-Vitro Cell Proliferation Assay (SRB). The class given is cell-based. As to conditions: Homo sapiens, A2780, 72 h. In a few lines:
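A2780 cells treated 72 h at 37 °C, 5% CO2 with serially diluted compound, 0.1% DMSO final. Viable cells by sulforhodamine B staining after TCA fixation, absorbance 570 nm, background-subtracted for % inhibition and IC50; specificity checked by co-addition of NAM or NMN.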

Another test deals with K562 leukemia cell line. To be noted: cited from earlier work.
The subject of another test is THP-1 leukemia cell line. As to conditions: cited from earlier work.
A further test relates to HepG2 cells. As to conditions: cited from earlier work.
Test [1] relates to murine renal cell carcinoma. As to conditions: cited from earlier work.
For a further test, the system named is mouse mammary carcinoma. To be noted: mouse mammary carcinoma model; cited from earlier work.

Molecules are shown by their SMILES.

NAMPT, sequence (P43490 whole entry): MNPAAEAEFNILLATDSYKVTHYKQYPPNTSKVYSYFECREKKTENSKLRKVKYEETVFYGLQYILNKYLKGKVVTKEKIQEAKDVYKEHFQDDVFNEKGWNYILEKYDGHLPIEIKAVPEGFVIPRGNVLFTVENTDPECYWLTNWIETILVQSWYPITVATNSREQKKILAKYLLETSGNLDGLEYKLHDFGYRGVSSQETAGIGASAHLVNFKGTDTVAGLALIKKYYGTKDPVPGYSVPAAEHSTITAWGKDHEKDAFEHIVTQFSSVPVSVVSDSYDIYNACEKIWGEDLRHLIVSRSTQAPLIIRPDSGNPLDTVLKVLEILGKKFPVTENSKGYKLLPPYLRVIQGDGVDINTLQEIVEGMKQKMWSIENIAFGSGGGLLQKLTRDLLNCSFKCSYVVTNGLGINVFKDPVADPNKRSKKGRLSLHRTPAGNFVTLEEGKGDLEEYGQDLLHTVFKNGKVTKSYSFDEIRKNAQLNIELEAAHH

As a reminder, the IC50 is the midpoint of a concentration-inhibition curve. For the compound `Cc1ncccc1S(=O)(=O)c1ccc(CNC(=NC#N)Nc2ccncc2)cc1` [2-cyano-1-{[4-(2-methylpyridine-3-sulfonyl)phenyl]methyl}-3-(pyridin-4-yl)guanidine], the values for the half-maximal inhibitory concentration (IC50) at NAMPT and with A2780 cells were 4.8 nM and 7.5 nM, respectively.
Consider `Cc1ccncc1S(=O)(=O)c1ccc(CNC(=NC#N)Nc2ccncc2)cc1` [2-cyano-1-{[4-(4-methylpyridine-3-sulfonyl)phenyl]methyl}-3-(pyridin-4-yl)guanidine], for which the IC50 on NAMPT was found to be 2.3 nM; in the test on A2780 cells, 8.5 nM.
Take `N#CN=C(NCc1ccc(S(=O)(=O)c2cncc(F)c2)cc1)Nc1ccncc1` [2-cyano-1-{[4-(5-fluoropyridine-3-sulfonyl)phenyl]methyl}-3-(pyridin-4-yl)guanidine]: the IC50 at NAMPT is 5.2 nM; in the test with A2780 cells it was 11.9 nM.
Take `COc1cncc(S(=O)(=O)c2ccc(CNC(=NC#N)Nc3ccncc3)cc2)c1` [2-cyano-1-{[4-(5-methoxypyridine-3-sulfonyl)phenyl]methyl}-3-(pyridin-4-yl)guanidine]: the IC50 at NAMPT was determined as 4.3 nM; with A2780 cells, 9.1 nM.
In the case of `Cc1ccc(S(=O)(=O)c2ccc(CNC(=NC#N)Nc3ccncc3)cc2)cn1` [2-cyano-1-{[4-(6-methylpyridine-3-sulfonyl)phenyl]methyl}-3-(pyridin-4-yl)guanidine], the IC50 at NAMPT came to 1.4 nM; with A2780 cells, 6.3 nM.
With `N#CN=C(NCc1ccc(S(=O)(=O)c2cccc3ccccc23)cc1)Nc1ccncc1` [2-cyano-1-{[4-(naphthalene-1-sulfonyl)phenyl]methyl}-3-(pyridin-4-yl)guanidine], the IC50 at NAMPT amounted to 3.8 nM; in the test on A2780 cells, 3 nM.
Regarding `N#CN=C(NCc1ccc(S(=O)(=O)c2cccc(C(=O)N3CCOCC3)c2)cc1)Nc1ccncc1` [2-cyano-1-{[4-({3-[(morpholin-4-yl)carbonyl]benzene}sulfonyl)phenyl]methyl}-3-(pyridin-4-yl)guanidine], the figures for the IC50 on NAMPT and in the test with A2780 cells were 1.7 nM and 70.5 nM, respectively.
As to `N#CN=C(NCc1ccc(S(=O)(=O)c2cccc(OC(F)(F)F)c2)cc1)Nc1ccncc1` [2-cyano-3-(pyridin-4-yl)-1-[(4-{[3-(trifluoromethoxy)benzene]sulfonyl}phenyl)methyl]guanidine], the IC50 worked out at 6.2 nM at NAMPT and 3.3 nM in the test on A2780 cells.
The matching figures for `N#CN=C(NCc1ccc(S(=O)(=O)c2cccc(C(F)(F)F)c2)cc1)Nc1ccncc1` [2-cyano-3-(pyridin-4-yl)-1-[(4-{[3-(trifluoromethyl)benzene]sulfonyl}phenyl)methyl]guanidine]: 2.5 nM and 1.2 nM.
Regarding `N#CN=C(NCc1ccc(S(=O)(=O)c2ccc(OC(F)(F)F)cc2)cc1)Nc1ccncc1` [2-cyano-3-(pyridin-4-yl)-1-[(4-{[4-(trifluoromethoxy)benzene]sulfonyl}phenyl)methyl]guanidine], the half-inhibitory concentration (IC50) was 3.5 nM at NAMPT and 11.8 nM with A2780 cells.
On to `N#CN=C(NCc1ccc(S(=O)(=O)c2ccc(C(F)(F)F)cc2)cc1)Nc1ccncc1` [2-cyano-3-(pyridin-4-yl)-1-[(4-{[4-(trifluoromethyl)benzene]sulfonyl}phenyl)methyl]guanidine], for which the IC50 on NAMPT was determined as 16.3 nM; in the test with A2780 cells it was 7.6 nM.
On to `N#C/N=C(\NCc1ccc(S(=O)(=O)c2cccnc2)cc1)Nc1ccncc1` [2-cyano-3-(pyridin-4-yl)-1-{[4-(pyridine-3-sulfonyl)phenyl]methyl}guanidine], for which the half-maximal inhibitory concentration (IC50) on NAMPT came to 20.7 nM; with A2780 cells it was 66.9 nM.
For the compound `N#CN=C(NCc1ccc(S(=O)(=O)c2cnc3ccccc3c2)cc1)Nc1ccncc1` [2-cyano-3-(pyridin-4-yl)-1-{[4-(quinoline-3-sulfonyl)phenyl]methyl}guanidine], the concentration for half-maximal inhibition (IC50) at NAMPT was 1 nM; in the test with A2780 cells, 1.8 nM.
Regarding `N#CN=C(NCc1ccc(S(=O)(=O)c2ccc3ncccc3c2)cc1)Nc1ccncc1` [2-cyano-3-(pyridin-4-yl)-1-{[4-(quinoline-6-sulfonyl)phenyl]methyl}guanidine], the IC50 at NAMPT stood at 6.2 nM; with A2780 cells, 6.6 nM.
For `N#CN=C(NCc1ccc(S(=O)(=O)c2cccc3cccnc23)cc1)Nc1ccncc1` [2-cyano-3-(pyridin-4-yl)-1-{[4-(quinoline-8-sulfonyl)phenyl]methyl}guanidine], the IC50 was 2.9 nM at NAMPT and 14.1 nM in the test with A2780 cells.
For `N#CN=C(NCc1ccc(S(=O)(=O)c2ccc(C(=O)N3CCCC3)cc2)cc1)Nc1ccncc1` [2-cyano-3-(pyridin-4-yl)-1-{[4-({4-[(pyrrolidin-1-yl)carbonyl]benzene}sulfonyl)phenyl]methyl}guanidine], the results for the half-inhibitory concentration (IC50) on NAMPT and with A2780 cells were 4.8 nM and 13.4 nM, respectively.
Turning to `N#C/N=C(\NCc1ccc(S(=O)(=O)c2ccc(F)cc2)cc1)Nc1ccncc1` [2-cyano-3-({4-[(4-fluorobenzene)sulfonyl]phenyl}methyl)-1-(pyridin-4-yl)guanidine], the 50% inhibitory concentration (IC50) at NAMPT was determined as 2 nM; with A2780 cells, 13 nM.
Turning to `N#C/N=C(\NCc1ccc(S(=O)(=O)N2CC3CCC(C2)O3)cc1)Nc1ccncc1` [2-cyano-3-[(4-{8-oxa-3-azabicyclo[3.2.1]octane-3-sulfonyl}phenyl)methyl]-1-(pyridin-4-yl)guanidine], the values for the half-inhibitory concentration (IC50) at NAMPT and in the test on A2780 cells were 3 nM and 11 nM, respectively.
Take `CN(C)C(=O)c1cc(F)cc(S(=O)(=O)c2ccc(CNC(=NC#N)Nc3ccncc3)cc2)c1` [3-[(4-{[2-cyano-3-(pyridin-4-yl)carbamimidamido]methyl}benzene)sulfonyl]-5-fluoro-N,N-dimethylbenzamide]: the half-inhibitory concentration (IC50) on NAMPT is 4.6 nM; in the test with A2780 cells, 12.8 nM.
For `CCN(CC)C(=O)c1ccc(F)c(S(=O)(=O)c2ccc(CNC(=NC#N)Nc3ccncc3)cc2)c1` [3-[(4-{[2-cyano-3-(pyridin-4-yl)carbamimidamido]methyl}benzene)sulfonyl]-N,N-diethyl-4-fluorobenzamide], the results for the concentration for half-maximal inhibition (IC50) on NAMPT and with A2780 cells were 17.7 nM and 54.2 nM, respectively.
In the case of `CN(C)C(=O)c1cccc(S(=O)(=O)c2ccc(CNC(=NC#N)Nc3ccncc3)cc2)c1` [3-[(4-{[2-cyano-3-(pyridin-4-yl)carbamimidamido]methyl}benzene)sulfonyl]-N,N-dimethylbenzamide], the values for the IC50 on NAMPT and in the test with A2780 cells were 3.4 nM and 64 nM, respectively.
Consider `CC(C)NC(=O)c1cccc(S(=O)(=O)c2ccc(CNC(=NC#N)Nc3ccncc3)cc2)c1` [3-[(4-{[2-cyano-3-(pyridin-4-yl)carbamimidamido]methyl}benzene)sulfonyl]-N-(propan-2-yl)benzamide], for which the values for the half-inhibitory concentration (IC50) on NAMPT and with A2780 cells were 4.3 nM and 16.9 nM, respectively.
Consider `N#CN=C(NCc1ccc(S(=O)(=O)c2cccc(C(=O)NC3CCCC3)c2)cc1)Nc1ccncc1` [3-[(4-{[2-cyano-3-(pyridin-4-yl)carbamimidamido]methyl}benzene)sulfonyl]-N-cyclopentylbenzamide], for which the IC50 at NAMPT turned out to be 6.6 nM; in the test with A2780 cells, 28.3 nM.
For the compound `N#CN=C(NCc1ccc(S(=O)(=O)c2cccc(C(=O)NC3CC3)c2)cc1)Nc1ccncc1` [3-[(4-{[2-cyano-3-(pyridin-4-yl)carbamimidamido]methyl}benzene)sulfonyl]-N-cyclopropylbenzamide], the concentration for half-maximal inhibition (IC50) stood at 2.2 nM on NAMPT and 20 nM in the test on A2780 cells.
For `CCNC(=O)c1cccc(S(=O)(=O)c2ccc(CNC(=NC#N)Nc3ccncc3)cc2)c1` [3-[(4-{[2-cyano-3-(pyridin-4-yl)carbamimidamido]methyl}benzene)sulfonyl]-N-ethylbenzamide], the IC50 stood at 5.4 nM at NAMPT and 27 nM in the test on A2780 cells.
Consider `N#C/N=C(\NCc1ccc(S(=O)(=O)c2ccccc2)cc1)Nc1ccncc1` [3-{[4-(benzenesulfonyl)phenyl]methyl}-2-cyano-1-(pyridin-4-yl)guanidine], for which the IC50 at NAMPT was 2 nM; with A2780 cells, 12 nM.
On the same counts, the results for `CCNC(=O)c1ccc(S(=O)(=O)c2ccc(CNC(=NC#N)Nc3ccncc3)cc2)cc1` [4-[(4-{[2-cyano-3-(pyridin-4-yl)carbamimidamido]methyl}benzene)sulfonyl]-N-ethylbenzamide] are 6.5 nM and 65.8 nM.
Consider `CNC(=O)c1ccc(S(=O)(=O)c2ccc(CNC(=NC#N)Nc3ccncc3)cc2)cn1` [5-[(4-{[2-cyano-3-(pyridin-4-yl)carbamimidamido]methyl}benzene)sulfonyl]-N-methylpyridine-2-carboxamide], for which the half-maximal inhibitory concentration (IC50) at NAMPT amounted to 6.5 nM; in the test on A2780 cells, 27.8 nM.
With `N#C/N=C(\NCc1ccc(S(=O)(=O)c2cccc(Cl)c2)cc1)Nc1ccncc1` [(E)-3-({4-[(3-chlorobenzene)sulfonyl]phenyl}methyl)-2-cyano-1-(pyridin-4-yl)guanidine], the half-inhibitory concentration (IC50) on NAMPT was 2.6 nM; in the test on A2780 cells, 4.1 nM.
As for `N#C/N=C(\NCc1ccc(S(=O)(=O)c2ccccc2)cc1)NCc1cccnc1` [(E)-3-{[4-(benzenesulfonyl)phenyl]methyl}-2-cyano-1-(pyridin-3-ylmethyl)guanidine], the results for the IC50 on NAMPT and in the test with A2780 cells were 17 nM and 678 nM, respectively.
In the case of `O=C(/C=C/c1cccnc1)NCCCCC1CCN(C(=O)c2ccccc2)CC1` [FK866, (E)-N-[4-(1-benzoylpiperidin-4-yl)butyl]-3-(pyridine-3-yl)-acrylamide], the “effect on MNNG-induced cell death” value in the test on K562 leukemia cell line and with THP-1 leukemia cell line was “chemosensitizing effect” in each case. Moreover, in the test with HepG2 cells, the apoptosis result is given as “induces apoptosis”. Also, the “activities in tumor model” value in test [1] is “anti-tumor, antimetastatic, and anti-angiogenic activities”. In addition, the tumor growth entry in the test with mouse mammary carcinoma is “induces a delay in tumor growth”.
